Values after ≈ are worked out from the molar mass of the structure shown.
Columns and labels:
[1] = system: NCI-H460 cell line (NSCL cancer); experiment: Cell growth inhibition assay (cytotoxicity); format: cell-based, human; details: counted 72 hours after exposure, 1 or 72 hr drug exposure; for IC50: Homo sapiens, NCI-H460, read-out: NCI-H460 IC50 (μg/mL) Cell count, H460 human large cell lung tumor cells; for NCI-H460 IC50 (μg/mL) Cell count: H460 human large cell lung tumor cells
Method: The compounds of the invention were tested in a cytotoxicity assay on a wide spectrum of tumour cells. By way of example, the cytotoxicity data on the NCI-H460 cell line (NSCL cancer) concerning two compounds of formula (I) are reported, using camptothecin and the drugs Topotecan and SN-38 as references:
H460 Cells from human large cell lung tumor were cultured in RPMI-1640 medium containing 10% foetal calf serum. Cell sensitivity was determined by cell growth inhibition assay after 1 or 72 hr drug exposure. The cells in logarithmic growth were collected and seeded in duplicate in 6-wells plates. […] IC50 is defined as the concentration inhibiting by 50% cell growth compared with untreated controls growth.

[2] = biological target: T1, human recombinant enzyme (full length top1) (Homo sapiens, UniProt P11387); experiment: Topoisomerase-I-dependent DNA rupture assay (DNA damage persistence); format: biochemical; details: 0.6 M NaCl added after 30 min incubation with 10 μM of the drug
T1 construct: the human recombinant enzyme (full length top1)
T1 sequence (P11387 1-765): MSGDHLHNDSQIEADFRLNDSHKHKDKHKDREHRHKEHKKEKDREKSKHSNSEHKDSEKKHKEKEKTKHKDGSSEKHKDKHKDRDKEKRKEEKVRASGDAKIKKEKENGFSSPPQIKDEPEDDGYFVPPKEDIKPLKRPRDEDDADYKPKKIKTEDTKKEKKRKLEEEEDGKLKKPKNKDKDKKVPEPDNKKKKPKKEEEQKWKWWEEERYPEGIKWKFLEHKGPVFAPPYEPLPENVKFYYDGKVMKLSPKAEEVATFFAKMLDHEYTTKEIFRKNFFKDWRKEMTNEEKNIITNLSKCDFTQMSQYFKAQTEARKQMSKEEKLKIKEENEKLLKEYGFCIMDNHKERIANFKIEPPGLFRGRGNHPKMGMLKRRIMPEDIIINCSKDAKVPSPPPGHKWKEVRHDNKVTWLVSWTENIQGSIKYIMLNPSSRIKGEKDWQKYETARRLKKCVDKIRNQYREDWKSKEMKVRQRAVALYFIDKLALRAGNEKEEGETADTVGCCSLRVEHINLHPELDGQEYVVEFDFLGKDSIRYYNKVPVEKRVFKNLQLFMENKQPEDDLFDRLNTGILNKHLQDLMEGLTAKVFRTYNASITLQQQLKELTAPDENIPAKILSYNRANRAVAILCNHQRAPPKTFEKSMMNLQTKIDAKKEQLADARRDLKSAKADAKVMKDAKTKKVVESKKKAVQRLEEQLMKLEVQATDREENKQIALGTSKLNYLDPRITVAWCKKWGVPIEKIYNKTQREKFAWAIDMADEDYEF

[3] = system: lung tumor model; experiment: In vivo comparison on a lung tumor model; details: dose 50 mg/kg/inj.
Description: Compound thio-SN38 (IDN6156) was transformed into thio-CPT11 (thio-Irinotecan) according to procedures for the conversion of SN38 to CPT11 (Irinotecan) reported in the literature. The resulting compound thio-irinotecan was compared in vivo with close non-sulforated analogue in clinical use (CPT11) on a lung tumor model highly sensitive to the standard references.

SMILES | IC50 [1] [µg/mL] | Persistence of DNA damage (%) ([2]; time 0 min) | Persistence of DNA damage (%) ([2]; time 1 min) | Persistence of DNA damage (%) ([2]; time 5 min) | Persistence of DNA damage (%) ([2]; time 10 min) | Max BWL % [3] [%] | TWI % [3] [%] | Tox/Tot [3] | LCK (0.5 g) ([3]; 0.5 g) | NCI-H460 IC50 (μg/mL) Cell count [1] [µg/mL]
CC[C@@]1(O)C(=O)OCc2c1cc1n(c2=S)Cc2cc3c(CN(C)C)c(O)ccc3nc2-1 [IDN 6180, Thio-Topotecan] | 0.115 ± 0.021 (≈ 0.263 µM) |  |  |  |  |  |  |  |  | 
CC[C@@]1(O)C(=O)OCc2c1cc1n(c2=S)Cc2cc3ccccc3nc2-1 [IDN 6070, Thio-camptothecin] | 0.05 ± 0.021 (≈ 0.137 µM) | 100 | 33 | 10 | 10 |  |  |  |  | 
CC[C@@]1(O)C(=O)OCc2c1cc1n(c2=O)Cc2cc3c(CN(C)C)c(O)ccc3nc2-1 [Topotecan, reference compound] |  | 100 | 65 | 20 | 10 |  |  |  |  | 
CC[C@@]1(O)C(=O)OCc2c1cc1n(c2=O)Cc2cc3ccccc3nc2-1 [Camptothecin] |  | 100 | 58 | 23 | 20 |  |  |  |  | 
CCc1c2c(nc3ccc(O)cc13)-c1cc3c(c(=O)n1C2)COC(=O)[C@]3(O)CC [SN38, 10-hydroxy-7-ethylcamptothecin, reference compound] |  | 100 | 60 | 33 | 28 |  |  |  |  | 
CCc1c2c(nc3ccc(OC(=O)N4CCC(N5CCCCC5)CC4)cc13)-c1cc3c(c(=O)n1C2)COC(=O)[C@]3(O)CC [CPT 11] |  |  |  |  |  | 15 | 91 | 0/5 | 1.8 | 
CCc1c2c(nc3ccc(O)cc13)-c1cc3c(c(=S)n1C2)COC(=O)[C@]3(O)CC [IDN 6156, ThioSN-38] | 0.0095 ± 0.0007 (≈ 0.0233 µM) | 100 | 100 | 80 | 60 |  |  |  |  | 
CC[C@@]1(O)C(=O)OCc2c1cc1n(c2=S)Cc2cc3cc(O)ccc3nc2-1 [IDN 6181, 10-hydroxy-Thio-Camptothecin] | 0.035 ± 0.011 (≈ 0.092 µM) | 100 | 88 | 50 | 22 |  |  |  |  | 
CC[C@@]1(O)C(=O)OCc2c1cc1n(c2=S)C(N=[N+]=[N-])c2cc3ccccc3nc2-1 (some centres unmarked) [IDN 6093] |  |  |  |  |  |  |  |  |  | 0.72 ± 0.2
CC[C@@]1(O)C(=O)OCc2c1cc1n(c2=S)C(N=[N+]=[N-])c2cc3ccccc3nc2-1 (some centres unmarked) [IDN 6092] |  | 100 | 35 | 18 | 15 |  |  |  |  | 0.3 ± 0.07

Reference: US8217053B2, “Camptothecin derivatives with antitumor activity” (Indena S.p.A., priority 2006, dated 2012)
